ChEMBL document CHEMBL3751684, “2,3-Dihydrobenzofuran privileged structures as new bioinspired lead compounds for the design of mPGES-1 inhibitors” (Bioorg Med Chem, 2016)
Active and inactive are the calls of the source. No cut-off for these calls is given here.

Assays:
[1] = target: T1, Prostaglandin E synthase (Homo sapiens) (UniProt O14684); experiment: Inhibition of PGES-1 in IL-1beta stimulated human A549 cell microsomes using PGH2 as substrate assessed as suppression of PGE2 formation at 10 uM preincubated for 15 mins followed by substrate addition by reversed phase-HPLC analysis
T1 sequence (whole entry): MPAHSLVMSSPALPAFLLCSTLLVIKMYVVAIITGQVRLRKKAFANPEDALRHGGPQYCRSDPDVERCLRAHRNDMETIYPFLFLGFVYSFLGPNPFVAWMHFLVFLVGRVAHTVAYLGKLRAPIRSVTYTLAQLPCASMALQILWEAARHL

Prostaglandin E synthase = target: T2, Prostaglandin E synthase (Homo sapiens, UniProt O14684); experiment: Inhibition of PGES-1 in IL-1beta stimulated human A549 cell microsomes using PGH2 as substrate assessed as suppression of PGE2 formation preincubated for 15 mins followed by substrate addition by reversed phase-HPLC analysis
T2 sequence (O14684 whole entry): T1 sequence (whole entry)

Row | Structure (SMILES) | inhibition [1] | IC50 (Prostaglandin E synthase)
1 | COC(=O)/C=C/c1cc(O)c2c(c1)[C@@H](C(=O)OC)[C@H](c1ccc(O)c(O)c1)O2 (racemic) | Active | 8500 nM
2 | O=C(/C=C/c1cc(O)c2c(c1)[C@@H](C(=O)OCCc1ccccc1)[C@H](c1ccc(O)c(O)c1)O2)OCCc1ccccc1 (racemic) [listing 1 of 2 here] | Active | –
3 | O=C(/C=C/c1cc(O)c2c(c1)[C@@H](C(=O)OCCc1ccccc1)[C@H](c1ccc(O)c(O)c1)O2)OCCc1ccccc1 | – | 2100 nM
4 | O=C(/C=C/c1cc(O)c2c(c1)[C@H](C(=O)OCCc1ccccc1)[C@@H](c1ccc(O)c(O)c1)O2)OCCc1ccccc1 | – | 2800 nM
5 | O=C(/C=C/c1cc(O)c2c(c1)[C@@H](C(=O)OCCc1ccccc1)[C@H](c1ccc(O)c(O)c1)O2)OCCc1ccccc1 (racemic) [listing 2 of 2 here] | – | 2000 nM
6 | CCCCOC(=O)/C=C/c1cc(O)c2c(c1)[C@@H](C(=O)OCCCC)[C@H](c1ccc(O)c(O)c1)O2 (racemic) | Active | 2100 nM
7 | CCOC(=O)/C=C/c1cc(O)c2c(c1)[C@@H](C(=O)OCC)[C@H](c1ccc(O)c(O)c1)O2 (racemic) | Active | 3600 nM

More lines, now with the values ahead:

Row | inhibition [1] | IC50 (Prostaglandin E synthase) | Structure (SMILES)
8 | Active | – | COc1cc([C@@H]2Oc3c(OC)cc(/C=C/c4cc(OC)c(OC)c(OC)c4)cc3[C@H]2c2cc(OC)c(OC)c(OC)c2)ccc1O (racemic)
9 | Active | – | COc1cc(/C=C/c2ccc3c(c2)[C@@H](c2cc(OC)cc(OC)c2)[C@H](c2ccc(O)cc2)O3)cc(OC)c1 (racemic)
10 | inactive | – | C=Cc1ccc(/C=C/c2ccc3c(c2)[C@@H](c2ccc(C=C)cc2)[C@H](c2ccc(O)cc2)O3)cc1 (racemic)
11 | Active | – | COc1ccc(/C=C/c2ccc3c(c2)[C@@H](c2ccc(OC)cc2)[C@H](c2ccc(O)cc2)O3)cc1 (racemic)
